Measurements taken from publication PMC9610943, “Truncated Pleurocidin Derivative with High Pepsin Hydrolysis Resistance to Combat Multidrug-Resistant Pathogens” (Pharmaceutics, 2022).
Where no end group is shown, it is not given here.

Columns and labels:
E. coli CP131 (mcr-3) = test: microbe, parasite or virus in culture; format: cell-based; conditions: CP131 (mcr-3)
Procedure: (§1) S. aureus ATCC 29213, E. coli ATCC 25922, S. enteritidis ATCC 13076 and A. baumannii ATCC 19609 were obtained from the American Type Culture Collection (ATCC). The remaining strains used in the experiment were all preserved strains in our laboratory. All strains were cultured in nutrient broth overnight to the logarithmic phase at 37 °C prior to each experiment.
(§2) The MICs of all drugs were determined by micro-broth dilution method according to CLSI 2018 guidelines. Briefly, a single colony of the bacterial strain was transferred to 1 mL of Mueller Hilton broth (MHB) and overnight at 37 °C and then 10 μL were cultured in a new 1 mL medium for 4 to 6 h, and then the bacterial culture at the logarithmic phase was diluted to 1 × 10^6 CFUs/mL. The assay was performed by adding 100 μL of each peptide solution at various concentrations (0.25 to 128 μg/mL) and 100 μL of diluted bacterial culture to different wells of a 96-well microtiter plate (Corning, NY, USA). After incubation at 37 °C for 16 to 18 h and then read its MIC value. MIC value is defined as the lowest drug concentration without visible bacteria.

[1] = system: S. enteritidis ATCC 13076; test: microbe, parasite or virus in culture; format: cell-based; conditions: ATCC 13076
Procedure: as §1, §2

[2] = system: E. coli B2 (blaNDM-5 + mcr-1); test: microbe, parasite or virus in culture; format: cell-based; conditions: B2 (blaNDM-5 + mcr-1)
Procedure: as §1, §2

[3] = system: S. aureus 215 (cfr + LZD^R); test: microbe, parasite or virus in culture; format: cell-based; conditions: S. aureus 215 (cfr + LZD^R); micro-broth dilution CLSI 2018, MHB, 37 °C, 16 to 18 h
Procedure: as §1, §2

E. coli G92 (mcr-1) = test: microbe, parasite or virus in culture; format: cell-based; conditions: G92 (mcr-1)
Procedure: as §1, §2

E. coli B3-1 (tet(X4)) = test: microbe, parasite or virus in culture; format: cell-based; conditions: B3-1 (tet(X4))
Procedure: as §1, §2

A. baumannii ATCC 19609 = test: microbe, parasite or virus in culture; format: cell-based; conditions: ATCC 19609
Procedure: as §1, §2

E. coli C3 (blaNDM-1) = test: microbe, parasite or virus in culture; format: cell-based; conditions: C3 (blaNDM-1)
Procedure: as §1, §2

S. aureus G16 (RIF^R) = test: microbe, parasite or virus in culture; format: cell-based; conditions: S. aureus G16 (RIF^R); micro-broth dilution CLSI 2018, MHB, 37 °C, 16 to 18 h
Procedure: as §1, §2

[4] = system: E. faecalis A4 (VRE, VanA); test: microbe, parasite or virus in culture; format: cell-based; conditions: A4 (VRE, VanA)
Procedure: as §1, §2

E. coli ATCC 25922 = test: microbe, parasite or virus in culture; format: cell-based; conditions: ATCC 25922
Procedure: as §1, §2

S. aureus ATCC 29213 = test: microbe, parasite or virus in culture; format: cell-based; conditions: ATCC 29213
Procedure: as §1, §2

[5] = system: P. aeruginosa (VIM + tmexCD1-torJ1); test: microbe, parasite or virus in culture; format: cell-based; conditions: VIM + tmexCD1-torJ1
Procedure: as §1, §2

E. coli G6 (blaNDM-5) = test: microbe, parasite or virus in culture; format: cell-based; conditions: G6 (blaNDM-5)
Procedure: as §1, §2

E. coli 1F28 (tet(X4)) = test: microbe, parasite or virus in culture; format: cell-based; conditions: 1F28 (tet(X4))
Procedure: as §1, §2

P. aeruginosa PA14 = test: microbe, parasite or virus in culture; format: cell-based; conditions: PA14
Procedure: as §1, §2

MRSA T144 [6] = format: cell-based, Staphylococcus aureus
Procedure: as §2
(§3) Then, the antibacterial activity of the peptides affected by different temperatures and pH were determined according to the determination steps of MICs test.
(§4) In MHB medium, Na^+, K^+, Mg^2+ and Ca^2+ with the final concentrations of 10 mM, fetal bovine serum, plasma or DMEM medium (Hyclone, Logan, UT, USA) with the final concentrations of 10% was added, and then MIC values were measured to evaluate the effects of different cations, serum and plasma on the antibacterial activity of peptides.
(§5) The peptide was incubated with protease (pepsin, trypsin and papain) (Solarbio, Beijing, China) with a final concentration of 1 mg/mL at 37 °C for 1 h, then the mixture of peptide and protease was heated at 100 °C for 30 min, then centrifuged at 13,000× g for 30 min, and the supernatant was taken for MIC determination.

[7] = system: P. cibarius HNCF44W (blaNDM-1+ tet(X6)); test: organism not typed; format: cell-based
Procedure: as §1, §2

E. coli B2 = format: cell-based
Procedure: as §2, §3, §4, §5

MRSA T144 [8] = test: microbe, parasite or virus in culture; format: cell-based, Staphylococcus aureus; conditions: T144
Procedure: as §1, §2

MRSA 1530 = test: microbe, parasite or virus in culture; format: cell-based, Staphylococcus aureus; conditions: 1530
Procedure: as §1, §2

For GWKSFFKKFKHVWK [GK-3], the MIC (E. coli CP131 (mcr-3)) was 2 µg/mL, the MIC [1] was 4 µg/mL and the MIC [2] was 4 µg/mL. For the same sequence, the MIC [3] was 4 µg/mL, the MIC (E. coli G92 (mcr-1)) was 2 µg/mL and the MIC (E. coli B3-1 (tet(X4))) was 2 µg/mL. It also gave an MIC (A. baumannii ATCC 19609) of 4 µg/mL, an MIC (E. coli C3 (blaNDM-1)) of 4 µg/mL and an MIC (S. aureus G16 (RIF^R)) of 8 µg/mL. For the same sequence, the MIC [4] was 32 µg/mL, the MIC (E. coli ATCC 25922) was 8 µg/mL and the MIC (S. aureus ATCC 29213) was 4 µg/mL. For the same sequence, the MIC [5] was 16 µg/mL, the MIC (E. coli G6 (blaNDM-5)) was 4 µg/mL and the MIC (E. coli 1F28 (tet(X4))) was 16 µg/mL. The MIC (P. aeruginosa PA14) was 64 µg/mL, the “MIC after treatment at 121 °C” value (MRSA T144 [6]; T144) was 8 µg/mL and the “MIC in DMEM (10%)” value (MRSA T144 [6]; T144) was 4 µg/mL. The “MIC in Plasma (10%)” value (MRSA T144 [6]; T144) was 4 µg/mL, the “MIC in Serum (10%)” value (MRSA T144 [6]; T144) was 8 µg/mL and the “MIC in presence of Ca^2+” value (MRSA T144 [6]; T144) was over 128 µg/mL. For the same sequence, the “MIC in presence of K^+” value (MRSA T144 [6]; T144) was 4 µg/mL, the “MIC in presence of Mg^2+” value (MRSA T144 [6]; T144) was 8 µg/mL and the “MIC in presence of Na^+” value (MRSA T144 [6]; T144) was 2 µg/mL. For the same sequence, the “MIC, Control” value (MRSA T144 [6]; T144) was 8 µg/mL, the “MIC after Papain treatment” value (MRSA T144 [6]; T144, 1 h) was over 128 µg/mL and the “MIC after Pepsin treatment” value (MRSA T144 [6]; T144, 1 h) was 64 µg/mL. For the same sequence, the “MIC after Trypsin treatment” value (MRSA T144 [6]; T144, 1 h) was over 128 µg/mL, the “MIC after treatment at 40 °C” value (MRSA T144 [6]; T144, 1 h) was 4 µg/mL and the “MIC after treatment at 60 °C” value (MRSA T144 [6]; T144, 1 h) was 2 µg/mL. For the same sequence, the “MIC after treatment at 80 °C” value (MRSA T144 [6]; T144, 1 h) was 4 µg/mL, the “MIC after treatment at 100 °C” value (MRSA T144 [6]; T144, 1 h) was 8 µg/mL and the “MIC after treatment at pH 2” value (MRSA T144 [6]; T144, 1 h, pH 2) was 4 µg/mL. For the same sequence, the “MIC after treatment at pH 4” value (MRSA T144 [6]; T144, 1 h, pH 4) was 4 µg/mL, the “MIC after treatment at pH 6” value (MRSA T144 [6]; T144, 1 h, pH 6) was 4 µg/mL and the “MIC after treatment at pH 8” value (MRSA T144 [6]; T144, 1 h, pH 8) was 4 µg/mL. For the same sequence, the “MIC after treatment at pH 10” value (MRSA T144 [6]; T144, 1 h, pH 10) was 4 µg/mL, the “MIC after treatment at pH 12” value (MRSA T144 [6]; T144, 1 h, pH 12) was 4 µg/mL and the MIC [7] was 8 µg/mL. For the same sequence, the “MIC after treatment at 121 °C” value (E. coli B2; B2) was 4 µg/mL, the “MIC in DMEM (10%)” value (E. coli B2; B2) was 4 µg/mL and the “MIC in Plasma (10%)” value (E. coli B2; B2) was 0.5 µg/mL. The “MIC in Serum (10%)” value (E. coli B2; B2) was 8 µg/mL, the “MIC in presence of Ca^2+” value (E. coli B2; B2) was over 128 µg/mL and the “MIC in presence of K^+” value (E. coli B2; B2) was 2 µg/mL. The “MIC in presence of Mg^2+” value (E. coli B2; B2) was 32 µg/mL, the “MIC in presence of Na^+” value (E. coli B2; B2) was 2 µg/mL and the “MIC, Control” value (E. coli B2; B2) was 4 µg/mL. The “MIC after Papain treatment” value (E. coli B2; B2, 1 h) was over 128 µg/mL, the “MIC after Pepsin treatment” value (E. coli B2; B2, 1 h) was 64 µg/mL and the “MIC after Trypsin treatment” value (E. coli B2; B2, 1 h) was over 128 µg/mL. The “MIC after treatment at 40 °C” value (E. coli B2; B2, 1 h) was 2 µg/mL, the “MIC after treatment at 60 °C” value (E. coli B2; B2, 1 h) was 2 µg/mL and the “MIC after treatment at 80 °C” value (E. coli B2; B2, 1 h) was 2 µg/mL. For the same sequence, the “MIC after treatment at 100 °C” value (E. coli B2; B2, 1 h) was 4 µg/mL, the “MIC after treatment at pH 2” value (E. coli B2; B2, 1 h, pH 2) was 4 µg/mL and the “MIC after treatment at pH 4” value (E. coli B2; B2, 1 h, pH 4) was 2 µg/mL. The “MIC after treatment at pH 6” value (E. coli B2; B2, 1 h, pH 6) was 2 µg/mL, the “MIC after treatment at pH 8” value (E. coli B2; B2, 1 h, pH 8) was 2 µg/mL and the “MIC after treatment at pH 10” value (E. coli B2; B2, 1 h, pH 10) was 2 µg/mL. The “MIC after treatment at pH 12” value (E. coli B2; B2, 1 h, pH 12) was 2 µg/mL, the MIC (MRSA T144 [8]) was 8 µg/mL and the MIC (MRSA 1530) was 16 µg/mL.
